Test results as given in patent US5206250A, “Bis-naphthalimides containing amide and thioamide linkers as anticancer agents” (Du Pont Merck Pharmaceutical Company, priority 1991, dated 1993).
Converted amounts (≈) assume the structure as drawn.

Each molecule was assayed on L1210 cells (assay: In vitro Growth Inhibitory Activity Determination (L1210 cells, MTT)). Conditions: Mus musculus, 72 h, 3 days incubation at 37° C., dose of drug that inhibits the growth of cells to one half that of the control cells, read-out: ID50 (the source's name).
Type: cell-based
Description: L1210 cells were maintained in RPMI=1640 a medium supplemented with 10% heat inactivated fetal bovine serum and […] mercaptomethanol/liter medium (RPMI-L).
Exponential growing L1210 cells (1×10^3 cells) in 0.1 mL medium were seeded on day 0 in a 96-well microtiter plate. On day 1, 0.1 mL aliquot of medium containing graded concentration of test analogs was added to the initial volume. After incubation at 37° C. in a humidified incubator for 3 days, the plates were centrifuged briefly and […] of the growth medium was removed. Cell cultures were incubated with […] of 3-(4, 5-dimethylthiazol-2yl)-2,5- diphenyltetrazolium bromide (MTT; 1 mg/ml in Dulbecco's phosphate buffer saline) for 4 hours at 37° C. The resulting purple formazan precipitate was solubilized with […] of 0.04 N HCl in isopropyl alcohol. Absorbance was read in a Titertek Multiskan MCC scaning well spectrophotometer (Flow Laboratories) at a test wavelength of 570 nm and a reference wavelength of 630 nm.
The absorbances were stored on a floppy disk on a IBM-XT and uploaded on to a VAX computer.
Y=((AM - Ao)/(1+(X/ID50)n))+Ao
Am=absorbance of the control cells
Ao=absorbance of the cells in the presence of highest drug conc.
ID50 =dose of drug that inhibits the growth of cells to one half that of the control cells.
`C[C@H](C(=O)NCCNC(=O)[C@@H](C)N1C(=O)c2cccc3cc([N+](=O)[O-])cc(c23)C1=O)N1C(=O)c2cccc3cc([N+](=O)[O-])cc(c23)C1=O` [Example 2, (R,R)-N,N'-1,2-ethanediylbis[α-methyl-5-nitro-1,3-dioxo-1H-benz[de]isoquinoline-2(3H)-acetamide]] gave an IC50 of 0.033 µg/mL (≈ 0.0506 µM).
Work on `C[C@@H](C(=S)NCCNC(=S)[C@H](C)N1C(=O)c2cccc3cc([N+](=O)[O-])cc(c23)C1=O)N1C(=O)c2cccc3cc([N+](=O)[O-])cc(c23)C1=O` [Example 6, (S,S)-N,N'-1,2-ethanediylbis[α-methyl-5-nitro-1,3-dioxo-1H-benz[de]isoquinoline-2(3H)ethanethioamide]] yielded an IC50 of 0.184 µg/mL (≈ 0.269 µM).
Molecule `O=C(CCN1C(=O)c2cccc3cc([N+](=O)[O-])cc(c23)C1=O)NCCCCNC(=O)CCN1C(=O)c2cccc3cc([N+](=O)[O-])cc(c23)C1=O` [Example 7] has an IC50 of 19 µg/mL (≈ 27.9 µM).
In the case of `CSCC[C@@H](C(=O)NCCCNC(=O)[C@H](CCSC)N1C(=O)c2cccc3cc([N+](=O)[O-])cc(c23)C1=O)N1C(=O)c2cccc3cc([N+](=O)[O-])cc(c23)C1=O` [Example 3], the IC50 is reported as 0.12 µg/mL (≈ 0.153 µM).
`C[C@@H](C(=O)NCCCCNC(=O)[C@H](C)N1C(=O)c2cccc3cc([N+](=O)[O-])cc(c23)C1=O)N1C(=O)c2cccc3cc([N+](=O)[O-])cc(c23)C1=O` [Example 4] showed an IC50 of 0.36 µg/mL (≈ 0.529 µM).
In the case of `C[C@@H](C(=O)NCCCNC(=O)[C@H](C)N1C(=O)c2cccc3cc([N+](=O)[O-])cc(c23)C1=O)N1C(=O)c2cccc3cc([N+](=O)[O-])cc(c23)C1=O` [Example 5], the IC50 is reported as 0.025 µg/mL (≈ 0.0375 µM).
In the case of `O=C(CCN1C(=O)c2cccc3cc([N+](=O)[O-])cc(c23)C1=O)NCCCNC(=O)CCN1C(=O)c2cccc3cc([N+](=O)[O-])cc(c23)C1=O` [Example 8], the IC50 is reported as > 20 µg/mL.
For `O=C(CCN1C(=O)c2cccc3cc([N+](=O)[O-])cc(c23)C1=O)NCCNC(=O)CCN1C(=O)c2cccc3cc([N+](=O)[O-])cc(c23)C1=O` [Example 9], the IC50 was 15.1 µg/mL (≈ 23.1 µM).
`C[C@@H](C(=O)NCCNC(=O)[C@H](C)N1C(=O)c2cccc3cc([N+](=O)[O-])cc(c23)C1=O)N1C(=O)c2cccc3cc([N+](=O)[O-])cc(c23)C1=O` [Example 1, (S,S)-N,N'-1,2-ethanediylbis[α-methyl-5-nitro-1,3-dioxo-1H-benz[de]isoquinoline-2(3H)-acetamide]] was tested, and the IC50 was 0.61 µg/mL (≈ 0.935 µM).
